This is an account of results in patent US9233951B2, “Heterocyclic compounds as pesticides” (Bayer Intellectual Property GmbH, priority 2010, dated 2016).

A short description of data set [1]: physchem. It counts as physicochemical. As to conditions: for chromatographic logP: reverse-phase HPLC column (C 18). Here is the method:
1 Method Description for Determination of the logP values and Mass Detection
Eluents for determination in the acidic range (pH 3.4): • Eluent A: acetonitrile+1 ml formic acid/l.
The λmax values were determined in the maxima of the chromatographic signals using the UV spectra from 200 nm to 400 nm. The mass was detected (M^+, m/z) by means of an Agilent MSD mass spectrometer.

The test system of data set [2] is green peach aphid (Myzus persicae). Put plainly: Myzus persicae test (spray treatment). It counts as in vivo. As to conditions: foliar, 144 h, read-out: efficacy in %. How it is done: Myzus persicae Test (Spray Treatment)
• Solvent: 78 parts by weight of acetone • 1.5 parts by weight of dimethylformamide • Emulsifier: 0.5 part by weight of alkylaryl polyglycol ether
To prepare an appropriate active ingredient preparation, 1 part by weight of active ingredient is mixed with the stated amounts of solvent and emulsifier, and the concentrate is diluted with emulsifier-containing water to the desired concentration. Discs of Chinese cabbage (Brassica pekinensis) infested by all stages of the green peach aphid (Myzus persicae) are sprayed with an active ingredient preparation of the desired concentration.
After 6 days, the efficacy in % is determined. 100% means that all of the aphids have been killed; 0% means that none of the aphids have been killed.

For data set [3], the system named is armyworm (Spodoptera frugiperda). Put plainly: Spodoptera frugiperda test (spray treatment). The note with it: application rate 500 g/ha; maize leaf discs sprayed; after 7 days; 100% = all caterpillars killed. It counts as in vivo. Here is the method:
Spodoptera frugiperda Test (Spray Treatment)
• Solvent: 78.0 parts by weight of acetone • 1.5 parts by weight of dimethylformamide • Emulsifier: 0.5 part by weight of alkylaryl polyglycol ether
To prepare an appropriate active ingredient preparation, 1 part by weight of active ingredient is mixed with the stated amounts of solvent and emulsifier, and the concentrate is diluted with emulsifier-containing water to the desired concentration. Discs of maize leaves (Zea mays) are sprayed with an active ingredient preparation of the desired concentration and, after drying, populated with the armyworm (Spodoptera frugiperda).
After 7 days, the efficacy in % is determined. 100% means that all caterpillars have been killed; 0% means that none of the caterpillars have been killed.

[4] abbreviates: pH 3.4, HPLC, reverse-phase C 18, acidic range pH 3.4, 55° C., table of compounds, read-out: logP (HCO2H).
Setting [5] is: application rate 500 g/ha, Chinese cabbage leaf discs sprayed, after 6 days, 100% = all aphids killed.
[6] abbreviates: pH 3.4, HPLC-MS value printed in the preparation example text, acidic range pH 3.4, read-out: logP (HCOOH).

Read-outs that look alike come from different tables or passages of the source.

On to `O=C(NCc1cccs1)c1ccc(-c2cccnc2)o1` [Compound 17], for which the chromatographic logP in data set [1] (setting [4]) was 1.46. For the same compound, the pest or weed control at 500 g/ha in data set [2] (setting [5]) was 100%.

Consider `O=C(NCC=CCl)c1ccc(-c2cccnc2)o1` [Compound 18], for which the “logP (HCO2H)” value in data set [1] (HPLC, reverse-phase C 18, acidic range pH 3.4, 55° C., table of compounds) is recorded as 1.33. Also, the chromatographic logP in data set [1] (setting [4]) worked out at 1.27. For the same compound, the pest or weed control at 500 g/ha in data set [2] (setting [5]) worked out at 90%.

On to `CN(C)C(=O)c1cc(-c2cccnc2)no1` [Compound 2, N,N-Dimethyl-3-(pyridin-3-yl)-1,2-oxazole-5-carboxamide], for which the chromatographic logP in data set [1] (setting [4]) and in data set [1] (setting [6]) was 0.78 each time. Besides, the pest or weed control at 500 g/ha in data set [2] (setting [5]) was 100%.

In the case of `CCN(CC)C(=O)c1oc(-c2cccnc2)cc1C` [Compound 24], the chromatographic logP in data set [1] (setting [4]) came to 1.58. Besides, in data set [2] (setting [5]), the pest or weed control at 500 g/ha stood at 90%.

`CN(C)C(=O)c1cnc(-c2cccnc2)o1` [Compound 25, N,N-Dimethyl-2-(pyridin-3-yl)-1,3-oxazole-5-carboxamide]: the chromatographic logP in data set [1] (setting [4]) and in data set [1] (setting [6]) was 1.43 throughout. Further, the pest or weed control at 500 g/ha in data set [2] (setting [5]) turned out to be 90%.

Consider `CCN(CC)C(=O)c1ccc(-c2cccnc2)o1` [Compound 6], for which, in data set [1] (setting [4]), the chromatographic logP turned out to be 1.23. The pest or weed control at 500 g/ha in data set [2] (setting [5]) came out at 100%.

Take `O=C(NCC1CC1)c1ccc(-c2cccnc2)o1` [Compound 30]: the chromatographic logP in data set [1] (setting [4]) was determined as 1.39. Further, in data set [2] (setting [5]), the pest or weed control at 500 g/ha came out at 100%.

As to `CC(F)(F)CNC(=O)c1cn(-c2cccnc2)nn1` [Compound 37, N-(2,2-Difluoropropyl)-1-(pyridin-3-yl)-1H-1,2,3-triazole-4-carboxamide], the chromatographic logP in data set [1] (setting [4]) worked out at 1.21; in data set [1] (setting [6]) it was 1.25. Also, in data set [2] (in Brassica rapa), the pest or weed control at 500 g/ha came to 100%. The same compound registered an efficacy in % in data set [3] of 100%.

On to `O=C(NCc1ncccn1)c1cc(-c2cccnc2)no1` [Compound 3], for which the chromatographic logP in data set [1] (setting [4]) is 0.62. Moreover, the pest or weed control at 500 g/ha in data set [2] (setting [5]) is 100%.

Consider `CCN(C)C(=O)c1ccc(-c2cccnc2)o1` [Compound 11], for which the chromatographic logP in data set [1] (setting [4]) is 1. In addition, the pest or weed control at 500 g/ha in data set [2] (setting [5]) was 100%.

As to `N#CCNC(=O)c1csc(-c2cccnc2)n1` [Compound 14], the chromatographic logP in data set [1] (setting [4]) was found to be 0.8. Also, in data set [2] (setting [5]), the pest or weed control at 500 g/ha is 80%.

Regarding `CN(C)C(=O)c1ccc(-c2cccnc2)o1` [Compound 7], the chromatographic logP in data set [1] (setting [4]) worked out at 0.51. In addition, the pest or weed control at 500 g/ha in data set [2] (setting [5]) was found to be 100%.

Regarding `O=C(NCc1ncccn1)C1CN=C(c2cncnc2)S1` (racemic) [Compound 44, (R,S)-4,5-Dihydro-N-(pyrimidin-2-ylmethyl)-2-(5-pyrimidinyl)-1,3-thiazole-5-carboxamide], the chromatographic logP in data set [1] (setting [4]) and in data set [1] (setting [6]) was 0.9 in each case. Further, the pest or weed control at 500 g/ha in data set [2] (setting [5]) stood at 80%.
